Assay results as given in paper PMC9856672, “SGC-CAMKK2-1: A Chemical Probe for CAMKK2” (Cells, 2023).

How the values were obtained:
[1] = molecular target: T1, ABL1(F317I)-nonphosphorylated (Homo sapiens, UniProt P00519, F317I); test: KINOMEscan at 1 μM, ABL1(F317I)-nonphosphorylated; format: binding; conditions: 1000 nM, read-out: Percent Control
T1 construct: purchased Eurofins DiscoverX KINOMEscan
Description: (§1) Supplement cells-12-00287-s001.zip/File S2. KinomeScan data for the CAMKK2 probe and negative control.xlsx, sheet "SGC-CAMKK2-1N" | column: Percent Control

[2] = molecular target: T2, IRAK1 (Homo sapiens, UniProt P51617); test: KINOMEscan at 1 μM, IRAK1; format: binding; conditions: 1000 nM, read-out: Percent Control
T2 construct: purchased Eurofins DiscoverX KINOMEscan
Description: as §1

[3] = molecular target: T3, ERN1 (Homo sapiens, UniProt O75460); test: KINOMEscan at 1 μM, ERN1; format: binding; conditions: 1000 nM, read-out: Percent Control
T3 construct: purchased Eurofins DiscoverX KINOMEscan
Description: as §1

[4] = molecular target: T4, IRAK3 (Homo sapiens, UniProt Q9Y616); test: KINOMEscan at 1 μM, IRAK3; format: binding; conditions: 1000 nM, read-out: Percent Control
T4 construct: purchased Eurofins DiscoverX KINOMEscan
Description: as §1

[5] = molecular target: T5, HUNK (Homo sapiens, UniProt P57058); test: KINOMEscan at 1 μM, HUNK; format: binding; conditions: 1000 nM, read-out: Percent Control
T5 construct: purchased Eurofins DiscoverX KINOMEscan
Description: as §1

[6] = molecular target: T6, LRRK2(G2019S) (Homo sapiens, UniProt Q5S007, G2019S); test: KINOMEscan at 1 μM, LRRK2(G2019S); format: binding; conditions: 1000 nM, read-out: Percent Control
T6 construct: purchased Eurofins DiscoverX KINOMEscan
Description: as §1

[7] = molecular target: T7, VEGFR2 (Homo sapiens, UniProt P35968); test: KINOMEscan at 1 μM, VEGFR2; format: binding; conditions: 1000 nM, read-out: Percent Control
T7 construct: purchased Eurofins DiscoverX KINOMEscan
Description: as §1

[8] = molecular target: T8, MET(Y1235D) (Homo sapiens, UniProt P08581, Y1235D); test: KINOMEscan at 1 μM, MET(Y1235D); format: binding; conditions: 1000 nM, read-out: Percent Control
T8 construct: purchased Eurofins DiscoverX KINOMEscan
Description: as §1

[9] = molecular target: T9, CLK4 (Homo sapiens, UniProt Q9HAZ1); test: KINOMEscan at 1 μM, CLK4; format: binding; conditions: 1000 nM, read-out: Percent Control
T9 construct: purchased Eurofins DiscoverX KINOMEscan
Description: as §1

[10] = molecular target: T10, EGFR(E746-A750del) (Homo sapiens, UniProt P00533, DEL746-750); test: KINOMEscan at 1 μM, EGFR(E746-A750del); format: binding; conditions: 1000 nM, read-out: Percent Control
T10 construct: purchased Eurofins DiscoverX KINOMEscan
Description: as §1

[11] = molecular target: T11, HASPIN (Homo sapiens, UniProt Q8TF76); test: KINOMEscan binding assay at 1 μM, HASPIN; conditions: Compound Concentration 1000 nM; read-out: Percent Control
T11 construct: purchased Eurofins DiscoverX KINOMEscan
Description: as §1

[12] = molecular target: T12, CSNK1E (Homo sapiens, UniProt P49674); test: KINOMEscan 1 μM, CSNK1E; format: binding; conditions: 1000 nM; Entrez CSNK1E; read-out: Percent Control
T12 construct: purchased Eurofins DiscoverX KINOMEscan
Description: (§2) Supplement cells-12-00287-s001.zip/File S2. KinomeScan data for the CAMKK2 probe and negative control.xlsx, sheet "SGC-CAMKK2-1" | column: Percent Control

[13] = molecular target: T13, CSNK1A1 (Homo sapiens, UniProt P48729); test: KINOMEscan 1 μM, CSNK1A1; format: binding; conditions: 1000 nM; Entrez CSNK1A1; read-out: Percent Control
T13 construct: purchased Eurofins DiscoverX KINOMEscan
Description: as §2

[14] = molecular target: T14, ERK2 (Homo sapiens, UniProt P28482); test: KINOMEscan 1 μM, ERK2; format: binding; conditions: 1000 nM; Entrez MAPK1; read-out: Percent Control
T14 construct: purchased Eurofins DiscoverX KINOMEscan
Description: as §2

[15] = molecular target: T15, NEK10 (Homo sapiens, UniProt Q6ZWH5); test: KINOMEscan 1 μM, NEK10; format: binding; conditions: 1000 nM; Entrez NEK10; read-out: Percent Control
T15 construct: purchased Eurofins DiscoverX KINOMEscan
Description: as §2

[16] = molecular target: T16, CDC2L1 (Homo sapiens, UniProt P21127); test: KINOMEscan 1 μM, CDC2L1; format: binding; conditions: 1000 nM; Entrez CDK11B; read-out: Percent Control
T16 construct: purchased Eurofins DiscoverX KINOMEscan
Description: as §2

[17] = molecular target: T17, ABL1-nonphosphorylated (Homo sapiens, UniProt P00519); test: KINOMEscan 1 μM, ABL1-nonphosphorylated; format: binding; conditions: 1000 nM; Entrez ABL1; read-out: Percent Control
T17 construct: purchased Eurofins DiscoverX KINOMEscan
Description: as §2

[18] = molecular target: T18, ADCK3 (Homo sapiens, UniProt Q8NI60); test: KINOMEscan 1 μM, ADCK3; format: binding; conditions: 1000 nM; Entrez CABC1; read-out: Percent Control
T18 construct: purchased Eurofins DiscoverX KINOMEscan
Description: as §2

[19] = molecular target: T19, AXL (Homo sapiens, UniProt P30530); test: KINOMEscan 1 μM, AXL; format: binding; conditions: 1000 nM; Entrez AXL; read-out: Percent Control
T19 construct: purchased Eurofins DiscoverX KINOMEscan
Description: as §2

[20] = molecular target: T20, EPHA1 (Homo sapiens, UniProt P21709); test: KINOMEscan 1 μM, EPHA1; format: binding; conditions: 1000 nM; Entrez EPHA1; read-out: Percent Control
T20 construct: purchased Eurofins DiscoverX KINOMEscan
Description: as §2

[21] = molecular target: T6, LRRK2(G2019S); test: KINOMEscan 1 μM, LRRK2(G2019S); format: binding; conditions: 1000 nM; Entrez LRRK2; read-out: Percent Control
Description: as §2

[22] = molecular target: T21, LYN (Homo sapiens, UniProt P07948); test: KINOMEscan 1 μM, LYN; format: binding; conditions: 1000 nM; Entrez LYN; read-out: Percent Control
T21 construct: purchased Eurofins DiscoverX KINOMEscan
Description: as §2

[23] = molecular target: T22, MLK1 (Homo sapiens, UniProt P80192); test: KINOMEscan 1 μM, MLK1; format: binding; conditions: 1000 nM; Entrez MAP3K9; read-out: Percent Control
T22 construct: purchased Eurofins DiscoverX KINOMEscan
Description: as §2

[24] = molecular target: T23, NEK7 (Homo sapiens, UniProt Q8TDX7); test: KINOMEscan 1 μM, NEK7; format: binding; conditions: 1000 nM; Entrez NEK7; read-out: Percent Control
T23 construct: purchased Eurofins DiscoverX KINOMEscan
Description: as §2

[25] = molecular target: T24, PCTK2 (Homo sapiens, UniProt Q00537); test: DiscoverX KINOMEscan binding assay at 1 μM, PCTK2; conditions: PCTK2 (CDK17); Compound Concentration 1000 nM; read-out: Percent Control
T24 construct: purchased Eurofins DiscoverX KINOMEscan
Description: as §2

[26] = molecular target: T25, PIK3CA (Homo sapiens, UniProt P42336); test: DiscoverX KINOMEscan binding assay at 1 μM, PIK3CA; conditions: Compound Concentration 1000 nM, read-out: Percent Control
T25 construct: purchased Eurofins DiscoverX KINOMEscan
Description: as §2

[27] = molecular target: T26, PIP5K2B (Homo sapiens, UniProt P78356); test: DiscoverX KINOMEscan binding assay at 1 μM, PIP5K2B; conditions: PIP5K2B (PIP4K2B); Compound Concentration 1000 nM; read-out: Percent Control
T26 construct: purchased Eurofins DiscoverX KINOMEscan
Description: as §2

[28] = molecular target: T27, PLK2 (Homo sapiens, UniProt Q9NYY3); test: DiscoverX KINOMEscan binding assay at 1 μM, PLK2; conditions: Compound Concentration 1000 nM, read-out: Percent Control
T27 construct: purchased Eurofins DiscoverX KINOMEscan
Description: as §2

[29] = molecular target: T28, PRKD2 (Homo sapiens, UniProt Q9BZL6); test: DiscoverX KINOMEscan binding assay at 1 μM, PRKD2; conditions: Compound Concentration 1000 nM, read-out: Percent Control
T28 construct: purchased Eurofins DiscoverX KINOMEscan
Description: as §2

[30] = molecular target: T29, RSK1(Kin.Dom.1-N-terminal) (Homo sapiens, UniProt Q15418); test: DiscoverX KINOMEscan binding assay at 1 μM, RSK1(Kin.Dom.1-N-terminal); conditions: RSK1(Kin.Dom.1-N-terminal) (RPS6KA1); Compound Concentration 1000 nM; read-out: Percent Control
T29 construct: RSK1(Kin.Dom.1-N-terminal); purchased Eurofins DiscoverX KINOMEscan
Description: as §2

[31] = molecular target: T30, SRMS (Homo sapiens, UniProt Q9H3Y6); test: DiscoverX KINOMEscan binding assay at 1 μM, SRMS; conditions: Compound Concentration 1000 nM, read-out: Percent Control
T30 construct: purchased Eurofins DiscoverX KINOMEscan
Description: as §2

[32] = molecular target: T31, SRPK3 (Homo sapiens, UniProt Q9UPE1); test: DiscoverX KINOMEscan binding assay at 1 μM, SRPK3; conditions: Compound Concentration 1000 nM, read-out: Percent Control
T31 construct: purchased Eurofins DiscoverX KINOMEscan
Description: as §2

T6 sequence (Q5S007 whole entry G2019S): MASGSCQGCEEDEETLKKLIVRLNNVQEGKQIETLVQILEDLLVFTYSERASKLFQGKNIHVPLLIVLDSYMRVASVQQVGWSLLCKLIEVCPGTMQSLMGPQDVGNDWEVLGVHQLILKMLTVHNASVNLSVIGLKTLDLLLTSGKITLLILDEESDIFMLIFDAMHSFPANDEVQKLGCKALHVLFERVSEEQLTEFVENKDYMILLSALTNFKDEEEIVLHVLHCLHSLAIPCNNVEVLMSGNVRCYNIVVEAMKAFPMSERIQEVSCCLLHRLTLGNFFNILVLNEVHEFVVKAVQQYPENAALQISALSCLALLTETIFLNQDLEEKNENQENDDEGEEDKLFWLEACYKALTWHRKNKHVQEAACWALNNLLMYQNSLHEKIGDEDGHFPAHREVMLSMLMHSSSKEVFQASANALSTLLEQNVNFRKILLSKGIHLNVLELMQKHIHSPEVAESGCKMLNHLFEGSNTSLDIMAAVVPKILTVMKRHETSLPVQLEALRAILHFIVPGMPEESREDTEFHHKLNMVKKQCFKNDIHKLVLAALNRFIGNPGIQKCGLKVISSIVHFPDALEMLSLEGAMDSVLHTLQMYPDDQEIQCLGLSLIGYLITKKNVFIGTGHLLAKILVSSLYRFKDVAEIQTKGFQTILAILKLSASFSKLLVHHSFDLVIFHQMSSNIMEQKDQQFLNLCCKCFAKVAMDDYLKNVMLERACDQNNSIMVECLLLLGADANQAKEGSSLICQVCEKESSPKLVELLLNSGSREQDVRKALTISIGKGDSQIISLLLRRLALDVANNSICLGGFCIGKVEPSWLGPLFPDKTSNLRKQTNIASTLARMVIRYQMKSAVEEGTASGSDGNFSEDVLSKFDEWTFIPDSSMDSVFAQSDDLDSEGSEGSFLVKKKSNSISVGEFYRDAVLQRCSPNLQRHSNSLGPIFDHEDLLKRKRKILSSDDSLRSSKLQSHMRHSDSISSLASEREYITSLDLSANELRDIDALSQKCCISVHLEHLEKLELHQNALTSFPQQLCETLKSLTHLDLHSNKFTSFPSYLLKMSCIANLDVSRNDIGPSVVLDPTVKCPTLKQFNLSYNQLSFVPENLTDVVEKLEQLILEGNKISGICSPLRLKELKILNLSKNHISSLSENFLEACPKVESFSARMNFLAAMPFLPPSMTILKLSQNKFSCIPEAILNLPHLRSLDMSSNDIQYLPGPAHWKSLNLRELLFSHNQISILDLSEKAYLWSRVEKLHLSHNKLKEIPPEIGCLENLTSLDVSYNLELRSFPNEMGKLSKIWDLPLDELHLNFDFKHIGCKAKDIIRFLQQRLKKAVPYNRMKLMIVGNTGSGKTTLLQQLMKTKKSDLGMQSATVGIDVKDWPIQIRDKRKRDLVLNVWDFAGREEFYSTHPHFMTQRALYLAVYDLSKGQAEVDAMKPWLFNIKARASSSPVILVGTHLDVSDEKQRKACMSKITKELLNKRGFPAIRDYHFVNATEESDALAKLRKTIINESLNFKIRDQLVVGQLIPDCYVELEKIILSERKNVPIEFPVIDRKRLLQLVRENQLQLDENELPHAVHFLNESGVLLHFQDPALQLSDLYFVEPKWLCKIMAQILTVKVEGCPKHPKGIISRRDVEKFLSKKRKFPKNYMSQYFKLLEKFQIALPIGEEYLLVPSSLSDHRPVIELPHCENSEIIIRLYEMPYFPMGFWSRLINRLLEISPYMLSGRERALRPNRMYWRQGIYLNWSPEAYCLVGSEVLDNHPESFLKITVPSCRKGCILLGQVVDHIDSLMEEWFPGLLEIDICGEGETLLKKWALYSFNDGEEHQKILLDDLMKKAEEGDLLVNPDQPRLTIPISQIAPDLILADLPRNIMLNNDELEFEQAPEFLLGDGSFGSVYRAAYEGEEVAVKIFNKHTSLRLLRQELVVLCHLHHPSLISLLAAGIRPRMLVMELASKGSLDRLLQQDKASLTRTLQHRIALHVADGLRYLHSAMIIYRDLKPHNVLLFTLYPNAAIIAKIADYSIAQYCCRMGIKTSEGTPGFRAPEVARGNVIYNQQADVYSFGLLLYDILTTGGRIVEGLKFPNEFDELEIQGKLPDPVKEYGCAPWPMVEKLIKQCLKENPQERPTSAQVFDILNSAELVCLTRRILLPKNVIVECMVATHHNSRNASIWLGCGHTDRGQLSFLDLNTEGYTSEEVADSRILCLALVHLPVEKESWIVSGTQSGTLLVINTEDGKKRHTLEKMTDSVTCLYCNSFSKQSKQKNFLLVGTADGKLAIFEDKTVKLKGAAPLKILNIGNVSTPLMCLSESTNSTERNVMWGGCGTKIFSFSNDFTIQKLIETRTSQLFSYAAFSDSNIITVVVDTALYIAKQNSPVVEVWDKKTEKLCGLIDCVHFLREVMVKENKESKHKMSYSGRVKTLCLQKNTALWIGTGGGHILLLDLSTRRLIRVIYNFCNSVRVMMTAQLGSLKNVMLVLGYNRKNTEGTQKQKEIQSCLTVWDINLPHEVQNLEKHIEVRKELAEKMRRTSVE
T2 sequence (P51617 whole entry): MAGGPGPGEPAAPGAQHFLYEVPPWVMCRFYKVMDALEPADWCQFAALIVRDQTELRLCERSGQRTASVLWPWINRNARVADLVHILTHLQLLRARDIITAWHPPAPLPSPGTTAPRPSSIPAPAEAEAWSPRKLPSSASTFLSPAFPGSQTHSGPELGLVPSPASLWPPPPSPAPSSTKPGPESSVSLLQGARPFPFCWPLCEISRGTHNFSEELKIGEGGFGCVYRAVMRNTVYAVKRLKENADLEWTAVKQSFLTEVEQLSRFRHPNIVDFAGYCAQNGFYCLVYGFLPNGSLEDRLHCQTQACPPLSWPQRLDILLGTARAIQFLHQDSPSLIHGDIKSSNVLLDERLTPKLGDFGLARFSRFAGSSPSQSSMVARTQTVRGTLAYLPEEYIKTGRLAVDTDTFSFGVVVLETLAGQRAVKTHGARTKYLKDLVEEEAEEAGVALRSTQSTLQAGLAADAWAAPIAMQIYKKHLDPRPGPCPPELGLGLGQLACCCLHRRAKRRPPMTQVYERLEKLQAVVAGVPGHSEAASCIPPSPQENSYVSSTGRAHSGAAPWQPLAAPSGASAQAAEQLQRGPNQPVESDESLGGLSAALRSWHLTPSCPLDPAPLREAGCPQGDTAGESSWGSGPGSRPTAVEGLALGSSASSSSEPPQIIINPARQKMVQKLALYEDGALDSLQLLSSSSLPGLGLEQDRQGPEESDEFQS
T11 sequence (Q8TF76 whole entry): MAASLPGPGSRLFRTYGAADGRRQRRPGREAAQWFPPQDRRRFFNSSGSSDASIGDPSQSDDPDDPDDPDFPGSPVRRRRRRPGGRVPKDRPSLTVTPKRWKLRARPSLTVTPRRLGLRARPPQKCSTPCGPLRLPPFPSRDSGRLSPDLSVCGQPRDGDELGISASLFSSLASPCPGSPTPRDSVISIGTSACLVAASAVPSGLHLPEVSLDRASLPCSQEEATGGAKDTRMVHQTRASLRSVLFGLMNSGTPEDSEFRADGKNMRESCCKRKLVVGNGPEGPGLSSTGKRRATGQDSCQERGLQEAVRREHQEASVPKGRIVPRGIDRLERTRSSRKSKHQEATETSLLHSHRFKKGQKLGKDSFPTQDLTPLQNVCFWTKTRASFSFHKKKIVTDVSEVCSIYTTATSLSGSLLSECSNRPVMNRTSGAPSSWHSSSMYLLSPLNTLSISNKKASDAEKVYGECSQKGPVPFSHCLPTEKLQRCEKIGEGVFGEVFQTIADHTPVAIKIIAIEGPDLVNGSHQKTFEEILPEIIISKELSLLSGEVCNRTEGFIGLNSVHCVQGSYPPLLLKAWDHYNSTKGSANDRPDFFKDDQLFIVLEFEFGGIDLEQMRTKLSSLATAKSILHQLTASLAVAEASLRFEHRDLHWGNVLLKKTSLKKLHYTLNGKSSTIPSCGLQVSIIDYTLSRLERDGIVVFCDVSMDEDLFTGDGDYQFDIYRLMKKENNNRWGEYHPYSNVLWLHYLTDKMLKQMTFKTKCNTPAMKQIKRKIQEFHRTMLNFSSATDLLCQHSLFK
T27 sequence (Q9NYY3 whole entry): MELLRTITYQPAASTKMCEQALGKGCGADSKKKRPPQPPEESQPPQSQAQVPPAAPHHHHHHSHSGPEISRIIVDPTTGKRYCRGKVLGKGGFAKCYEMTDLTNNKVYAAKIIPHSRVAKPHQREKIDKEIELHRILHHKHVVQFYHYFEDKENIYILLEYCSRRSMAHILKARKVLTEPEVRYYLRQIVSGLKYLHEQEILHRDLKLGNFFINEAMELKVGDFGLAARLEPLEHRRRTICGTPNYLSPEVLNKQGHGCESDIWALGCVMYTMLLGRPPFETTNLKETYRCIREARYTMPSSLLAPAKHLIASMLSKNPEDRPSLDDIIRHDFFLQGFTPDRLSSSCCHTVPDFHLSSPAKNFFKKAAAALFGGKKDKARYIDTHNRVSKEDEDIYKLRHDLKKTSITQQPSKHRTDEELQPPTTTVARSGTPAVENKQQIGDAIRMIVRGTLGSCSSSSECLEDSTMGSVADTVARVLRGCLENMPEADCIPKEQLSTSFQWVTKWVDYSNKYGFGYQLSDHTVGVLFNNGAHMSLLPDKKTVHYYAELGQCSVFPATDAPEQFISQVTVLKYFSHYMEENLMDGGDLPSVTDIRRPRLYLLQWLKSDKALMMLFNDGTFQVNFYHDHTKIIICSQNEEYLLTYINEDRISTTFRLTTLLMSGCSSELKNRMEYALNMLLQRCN
T23 sequence (Q8TDX7 whole entry): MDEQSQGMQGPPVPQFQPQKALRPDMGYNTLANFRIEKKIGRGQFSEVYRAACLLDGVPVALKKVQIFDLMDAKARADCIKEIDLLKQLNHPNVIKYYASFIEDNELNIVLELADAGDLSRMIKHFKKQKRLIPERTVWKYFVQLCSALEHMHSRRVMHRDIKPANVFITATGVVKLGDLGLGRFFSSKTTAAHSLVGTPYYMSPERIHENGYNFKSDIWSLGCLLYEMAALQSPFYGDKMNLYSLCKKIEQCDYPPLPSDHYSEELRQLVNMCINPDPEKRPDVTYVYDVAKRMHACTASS

SMILES: O=C(O)c1ccc(-c2coc3ncc(-c4ccccc4)cc23)cc1Cl [SGC-CAMKK2-1N (UNC-YL-83)]
- remaining binding at 1 µM [1]: 37%
- remaining binding at 1 µM [2]: 68%
- remaining binding at 1 µM [3]: 76%
- remaining binding at 1 µM [4]: 82%
- remaining binding at 1 µM [5]: 87%
- remaining binding at 1 µM [6]: 90%
- remaining binding at 1 µM [7]: 90%
- remaining binding at 1 µM [8]: 91%
- remaining binding at 1 µM [9]: 93%
- remaining binding at 1 µM [10]: 100%
- remaining binding at 1 µM [11]: 100%

SMILES: Cc1cccc(-c2cnc3occ(-c4ccc(C(=O)O)c(C5CCCC5)c4)c3c2)c1 [SGC-CAMKK2-1 (YL-36)]
- remaining binding at 1 µM [12]: 75%
- remaining binding at 1 µM [13]: 78%
- remaining binding at 1 µM [14]: 81%
- remaining binding at 1 µM [15]: 88%
- remaining binding at 1 µM [16]: 93%
- remaining binding at 1 µM [17]: 95%
- remaining binding at 1 µM [18]: 100%
- remaining binding at 1 µM [19]: 100%
- remaining binding at 1 µM [20]: 100%
- remaining binding at 1 µM [21]: 100%
- remaining binding at 1 µM [22]: 100%
- remaining binding at 1 µM [23]: 100%
- remaining binding at 1 µM [24]: 100%
- remaining binding at 1 µM [25]: 100%
- remaining binding at 1 µM [26]: 100%
- remaining binding at 1 µM [27]: 100%
- remaining binding at 1 µM [28]: 100%
- remaining binding at 1 µM [29]: 100%
- remaining binding at 1 µM [30]: 100%
- remaining binding at 1 µM [31]: 100%
- remaining binding at 1 µM [32]: 100%
